Assay results published in ChEMBL document CHEMBL6083277, “Discovery of SZJK-0421: A Novel Potent, Low Toxicity, Selective Second Generation of CRM1 Inhibitor for the Treatment of Both Hematological and Solid Tumors” (J Med Chem, 2024).

System: MM1.S
Assay: Antiproliferative activity against human MM1.S cells assessed as inhibition of cell growth incubated for 72 hrs by celltiter-glo assay
Assay type: functional, cell-based

**Q.** With `O=C(NCc1ccccn1)/C(=C/n1cnc(-c2cc(C(F)(F)F)cc(C(F)(F)F)c2)n1)c1cncnc1` as the compound, how does the IC50 read?
**A.** Its IC50 is 1500 nM.

**Q.** How did the IC50 turn out when `NC(=O)/C(=C/c1cnn(-c2cc(C(F)(F)F)cc(C(F)(F)F)c2)c1)c1cncc(F)c1` was run?
**A.** The IC50 was 2360 nM.
